Experimental data reported in the NIST ThermoML archive (doi:10.1016/j.jct.2016.09.026).

Columns and labels:
[1] = molar enthalpy of vaporization or sublimation; conditions: 381.12 K; Crystal; Static calorimetry
[2] = molar heat capacity at constant pressure; conditions: 101.33 kPa, Crystal, Small sample (50 mg) DSC
[3] = Crystal
[4] = Molar enthalpy of transition or fusion; conditions: Crystal; DSC

CCC(=O)c1ccc(O)cc1 [1-(4-hydroxyphenyl)-1-propanone]
Conditions | Molar enthalpy of transition or fusion [kcal/mol] | molar enthalpy [kcal/mol]
[1] | – | 26.87
[4] | 7.56 | –

Conditions | Normal melting temperature [°C] | molar heat capacity at constant pressure [J/K/mol]
[2], 288.66 K | – | 188.2
[2], 289.98 K | – | 188.2
[2], 291.28 K | – | 189.2
[2], 292.55 K | – | 189.9
[2], 293.82 K | – | 190.1
[2], 295.08 K | – | 191.4
[2], 296.34 K | – | 192.1
[2], 297.6 K | – | 192.7
[2], 298.85 K | – | 192.9
[2], 300.11 K | – | 193.6
[2], 301.36 K | – | 194.5
[2], 302.61 K | – | 195.3
[2], 303.87 K | – | 196.9
[2], 305.13 K | – | 197.5
[2], 306.38 K | – | 198.3
[2], 307.64 K | – | 198.5
[2], 308.89 K | – | 199.3
[2], 310.14 K | – | 199.8
[2], 311.39 K | – | 201
[2], 312.64 K | – | 201.7
[2], 313.9 K | – | 202.7
[2], 315.15 K | – | 203.5
[2], 316.4 K | – | 203.9
[2], 317.65 K | – | 204.9
[2], 318.9 K | – | 204.9
[2], 320.15 K | – | 206.1
[2], 321.41 K | – | 206.9
[2], 322.66 K | – | 207.6
[2], 323.91 K | – | 208.3
[2], 325.16 K | – | 209.1
[2], 326.41 K | – | 209.8
[2], 327.66 K | – | 210.5
[2], 328.91 K | – | 211.5
[2], 330.16 K | – | 212
[2], 331.41 K | – | 212.6
[2], 332.66 K | – | 213.6
[2], 333.91 K | – | 214.1
[2], 335.16 K | – | 215
[2], 336.41 K | – | 216.1
[2], 337.66 K | – | 216.6
[2], 338.91 K | – | 217.2
[2], 340.16 K | – | 217.3
[2], 341.41 K | – | 218.3
[2], 342.66 K | – | 219.2
[2], 343.91 K | – | 220.2
[2], 345.16 K | – | 220.7
[2], 346.41 K | – | 222
[2], 347.66 K | – | 222.2
[2], 348.91 K | – | 223.1
[2], 350.15 K | – | 223.8
[2], 351.4 K | – | 225
[2], 352.65 K | – | 225.9
[2], 353.9 K | – | 226.5
[2], 355.15 K | – | 226.9
[2], 356.4 K | – | 227.5
[2], 357.65 K | – | 228.2
[2], 358.9 K | – | 228.9
[2], 360.15 K | – | 229.6
[2], 361.4 K | – | 230.9
[2], 362.65 K | – | 231.4
[2], 363.9 K | – | 232.2
[2], 365.15 K | – | 232.7
[2], 366.39 K | – | 233.5
[2], 367.65 K | – | 235.1
[2], 368.9 K | – | 235.7
[2], 370.15 K | – | 236.6
[2], 371.4 K | – | 237.2
[2], 372.65 K | – | 237.9
[2], 373.9 K | – | 238.7
[2], 375.15 K | – | 239.3
[2], 376.4 K | – | 240.8
[2], 377.64 K | – | 241.3
[2], 378.89 K | – | 242.4
[2], 380.14 K | – | 243.1
[2], 381.39 K | – | 243.7
[2], 382.64 K | – | 244.3
[2], 383.89 K | – | 245.9
[3], DTA | 148.5 | –

Conditions | mass density [kg/m3]
[3], 298 K, 101.33 kPa, X-ray diffraction | 1273.1
